Article PMC4893628, “Chalcone-based Selective Inhibitors of a C4 Plant Key Enzyme as Novel Potential Herbicides” (Scientific Reports, 2016)
Values joined by “and” are separate entries in the source; they are usually repeats but may differ in a detail not shown here. Identical values can stand only once. Like-named read-outs stand apart in the source and are kept apart here.

Legend:
[1] = biological target: T1, F. trinervia PEPC (Flaveria trinervia, UniProt P30694); assay: biochemical; type: biochemical; details: for Selectivity C4/C3: C4 PEPC over C3 isoform
T1 construct: the full-length ppcA gene of PEPC from F. trinervia (EMBL-Bank X61304); made in house; host or cells: Escherichia coli BL21(DE3)
T1 sequence (P30694 1-966): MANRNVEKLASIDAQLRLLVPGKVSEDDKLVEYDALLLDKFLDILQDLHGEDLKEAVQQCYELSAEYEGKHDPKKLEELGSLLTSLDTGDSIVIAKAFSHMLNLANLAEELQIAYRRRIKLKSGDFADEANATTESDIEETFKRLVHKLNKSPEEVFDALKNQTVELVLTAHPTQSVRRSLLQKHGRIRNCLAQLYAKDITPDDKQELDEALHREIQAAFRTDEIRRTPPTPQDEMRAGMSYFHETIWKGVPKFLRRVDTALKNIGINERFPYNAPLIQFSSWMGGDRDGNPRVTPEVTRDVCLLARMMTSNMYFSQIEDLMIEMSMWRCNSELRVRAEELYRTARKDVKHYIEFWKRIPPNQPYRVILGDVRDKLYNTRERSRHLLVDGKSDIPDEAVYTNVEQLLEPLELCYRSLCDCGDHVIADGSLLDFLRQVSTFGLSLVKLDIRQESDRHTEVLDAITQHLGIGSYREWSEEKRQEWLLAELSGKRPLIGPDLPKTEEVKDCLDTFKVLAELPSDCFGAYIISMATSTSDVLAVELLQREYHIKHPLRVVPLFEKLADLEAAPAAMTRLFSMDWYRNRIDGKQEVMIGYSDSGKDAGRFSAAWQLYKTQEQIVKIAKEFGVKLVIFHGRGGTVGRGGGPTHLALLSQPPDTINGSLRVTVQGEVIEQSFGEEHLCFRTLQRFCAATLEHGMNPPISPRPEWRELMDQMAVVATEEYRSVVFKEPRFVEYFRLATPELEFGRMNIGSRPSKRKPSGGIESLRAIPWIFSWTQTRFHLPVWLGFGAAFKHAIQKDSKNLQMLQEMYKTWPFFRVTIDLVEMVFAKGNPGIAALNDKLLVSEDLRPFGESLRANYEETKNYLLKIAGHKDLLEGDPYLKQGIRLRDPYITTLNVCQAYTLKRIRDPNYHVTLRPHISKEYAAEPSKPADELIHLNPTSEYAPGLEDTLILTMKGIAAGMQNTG

[2] = tested on: Corynebacterium glutamicum ATCC13032; assay: Bacterial growth in microscale cultivation, C. glutamicum; type: cell-based; details: for activity at 0.3 µM / activity at 3 µM / activity at 30 µM: Corynebacterium glutamicum
Method in brief: (§1)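 In a BioLector microscale system shaken at 1200 rpm, growth was tracked by backscatter at 620 nm, and final signal, growth rate (h⁻¹) and lag-phase length were scored against DMSO-only controls. Starting OD600 was 0.5, or 0.25 for B. subtilis. Inhibitors came from DMSO stocks, with trans-chalcone capped at 400 μM and 2'-hydroxychalcone at 100 μM.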

[3] = tested on: Bacillus subtilis 168; assay: Bacterial growth in microscale cultivation, B. subtilis; type: cell-based
Method in brief: as §1

[4] = complex medium, 0.3 µM, relative to control
[5] = complex medium, 3 µM, relative to control
[6] = complex medium, 30 µM, relative to control
[7] = minimal medium, 0.3 µM, relative to control
[8] = minimal medium, 3 µM, relative to control
[9] = minimal medium, 30 µM, relative to control

For `O=C(/C=C/c1ccccc1)c1ccc(O)c(O)c1O` [Compound 10, 2′,3′,4′-Trihydroxychalcone], the “Selectivity C4/C3” value [1] was 15 fold, the “Selectivity C4/C3” value ([1]; listed as 2′,3′,4′-Trihydroxychalcone) was 15–45 fold and the IC50 ([1]; IC50 F. trinervia PEPC, C4 PEPC) was 4.2 ± 1.5 µM. It also gave an activity at 0.3 µM ([2]; ATCC13032, read-out: Final Backscatter, complex medium, 0.3 µM, relative to control) of 105%, an activity at 3 µM ([2]; ATCC13032, read-out: Final Backscatter, complex medium, 3 µM, relative to control) of 109% and an activity at 30 µM ([2]; ATCC13032, read-out: Final Backscatter, complex medium, 30 µM, relative to control) of 110%. It also gave an activity at 0.3 µM ([2]; ATCC13032, read-out: Final Backscatter, minimal medium, 0.3 µM, relative to control) of 103%, an activity at 3 µM ([2]; ATCC13032, read-out: Final Backscatter, minimal medium, 3 µM, relative to control) of 104% and an activity at 30 µM ([2]; ATCC13032, read-out: Final Backscatter, minimal medium, 30 µM, relative to control) of 104%. The activity at 0.3 µM ([2]; ATCC13032, read-out: Growth rate, complex medium, 0.3 µM, relative to control) was 106%, the activity at 3 µM ([2]; ATCC13032, read-out: Growth rate, complex medium, 3 µM, relative to control) was 112% and the activity at 30 µM ([2]; ATCC13032, read-out: Growth rate, complex medium, 30 µM, relative to control) was 118%. For the same compound, the activity at 0.3 µM ([2]; ATCC13032, read-out: Growth rate, minimal medium, 0.3 µM, relative to control) was 104%, the activity at 3 µM ([2]; ATCC13032, read-out: Growth rate, minimal medium, 3 µM, relative to control) was 103% and the activity at 30 µM ([2]; ATCC13032, read-out: Growth rate, minimal medium, 30 µM, relative to control) was 99.3%. For the same compound, the “Lag Phase” value [2, 4] was 100,0%, the “Lag Phase” value [2, 5] was 97,8% and the “Lag Phase” value [2, 6] was 94,9%. For the same compound, the “Lag Phase” value [2, 7] was 97,9%, the “Lag Phase” value [2, 8] was 98,6% and the “Lag Phase” value [2, 9] was 102,1%. For the same compound, the activity at 0.3 µM ([3]; Bacillus subtilis, 168, read-out: Final Backscatter, complex medium, 0.3 µM, relative to control) was 102%, the activity at 3 µM ([3]; Bacillus subtilis, 168, read-out: Final Backscatter, complex medium, 3 µM, relative to control) was 101% and the activity at 30 µM ([3]; Bacillus subtilis, 168, read-out: Final Backscatter, complex medium, 30 µM, relative to control) was 103%. For the same compound, the activity at 0.3 µM ([3]; Bacillus subtilis, 168, read-out: Final Backscatter, minimal medium, 0.3 µM, relative to control) was 108%, the activity at 3 µM ([3]; Bacillus subtilis, 168, read-out: Final Backscatter, minimal medium, 3 µM, relative to control) was 110% and the activity at 30 µM ([3]; Bacillus subtilis, 168, read-out: Final Backscatter, minimal medium, 30 µM, relative to control) was 106%. For the same compound, the activity at 0.3 µM ([3]; Bacillus subtilis, 168, read-out: Growth rate, complex medium, 0.3 µM, relative to control) was 106%, the activity at 3 µM ([3]; Bacillus subtilis, 168, read-out: Growth rate, complex medium, 3 µM, relative to control) was 109% and the activity at 30 µM ([3]; Bacillus subtilis, 168, read-out: Growth rate, complex medium, 30 µM, relative to control) was 112%. It also gave an activity at 0.3 µM ([3]; Bacillus subtilis, 168, read-out: Growth rate, minimal medium, 0.3 µM, relative to control) of 88.5%, an activity at 3 µM ([3]; Bacillus subtilis, 168, read-out: Growth rate, minimal medium, 3 µM, relative to control) of 94.4% and an activity at 30 µM ([3]; Bacillus subtilis, 168, read-out: Growth rate, minimal medium, 30 µM, relative to control) of 90.6%. The “Lag Phase” value [3, 4] was 100,0%, the “Lag Phase” value [3, 5] was 104,2% and the “Lag Phase” value [3, 6] was 97,9%. The “Lag Phase” value [3, 7] was 98,3%, the “Lag Phase” value [3, 8] was 96,6% and the “Lag Phase” value [3, 9] was 99,3%.
With `O=C(/C=C/c1ccc(O)c(O)c1)c1c(O)cc(O)cc1O` [Compound 11, 2′,4′,6′,3,4-Pentahydroxy-chalcone] the “lower inhibitory effect / weaker inhibitory potency compared to okanin (12)” value ([1]; C4 PEPC) was “~ four”, the “Selectivity C4/C3” value [1] was 3.3 fold and the IC50 ([1]; C4 PEPC, read-out: IC50 F. trinervia PEPC) was 2.5 ± 0.1 µM. The “decreased / lower selectivity compared to okanin (12)” value ([1]; C4 vs. C3 PEPC) was ~ 14 fold and ~ 13 fold, the activity at 0.3 µM ([2]; ATCC13032, complex medium, 0.3 µM, relative to control, read-out: Final Backscatter) was 99.6% and the activity at 0.3 µM ([2]; ATCC13032, complex medium, 0.3 µM, relative to control, read-out: Growth rate) was 94.6%. For the same compound, the activity at 3 µM ([2]; ATCC13032, complex medium, 3 µM, relative to control, read-out: Final Backscatter) was 103%, the activity at 3 µM ([2]; ATCC13032, complex medium, 3 µM, relative to control, read-out: Growth rate) was 104% and the activity at 30 µM ([2]; ATCC13032, complex medium, 30 µM, relative to control, read-out: Final Backscatter) was 103%. The activity at 30 µM ([2]; ATCC13032, complex medium, 30 µM, relative to control, read-out: Growth rate) was 95.3%, the activity at 0.3 µM ([2]; ATCC13032, minimal medium, 0.3 µM, relative to control, read-out: Final Backscatter) was 100% and the activity at 0.3 µM ([2]; ATCC13032, minimal medium, 0.3 µM, relative to control, read-out: Growth rate) was 104%. It also gave an activity at 3 µM ([2]; ATCC13032, minimal medium, 3 µM, relative to control, read-out: Final Backscatter) of 95.1%, an activity at 3 µM ([2]; ATCC13032, minimal medium, 3 µM, relative to control, read-out: Growth rate) of 105% and an activity at 30 µM ([2]; ATCC13032, minimal medium, 30 µM, relative to control, read-out: Final Backscatter) of 96.2%. The activity at 30 µM ([2]; ATCC13032, minimal medium, 30 µM, relative to control, read-out: Growth rate) was 104%, the “Lag Phase” value [2, 4] was 97,0% and the “Lag Phase” value [2, 5] was 97,0%. The “Lag Phase” value [2, 6] was 98,5%, the “Lag Phase” value [2, 7] was 99,3% and the “Lag Phase” value [2, 8] was 98,5%. For the same compound, the “Lag Phase” value [2, 9] was 98,5%, the activity at 0.3 µM ([3]; Bacillus subtilis, 168, complex medium, 0.3 µM, relative to control, read-out: Final Backscatter) was 97.4% and the activity at 0.3 µM ([3]; Bacillus subtilis, 168, complex medium, 0.3 µM, relative to control, read-out: Growth rate) was 106%. The activity at 3 µM ([3]; Bacillus subtilis, 168, complex medium, 3 µM, relative to control, read-out: Final Backscatter) was 96.5%, the activity at 3 µM ([3]; Bacillus subtilis, 168, complex medium, 3 µM, relative to control, read-out: Growth rate) was 106% and the activity at 30 µM ([3]; Bacillus subtilis, 168, complex medium, 30 µM, relative to control, read-out: Final Backscatter) was 97.1%. For the same compound, the activity at 30 µM ([3]; Bacillus subtilis, 168, complex medium, 30 µM, relative to control, read-out: Growth rate) was 97.8%, the activity at 0.3 µM ([3]; Bacillus subtilis, 168, minimal medium, 0.3 µM, relative to control, read-out: Final Backscatter) was 97.2% and the activity at 0.3 µM ([3]; Bacillus subtilis, 168, minimal medium, 0.3 µM, relative to control, read-out: Growth rate) was 114%. For the same compound, the activity at 3 µM ([3]; Bacillus subtilis, 168, minimal medium, 3 µM, relative to control, read-out: Final Backscatter) was 98.7%, the activity at 3 µM ([3]; Bacillus subtilis, 168, minimal medium, 3 µM, relative to control, read-out: Growth rate) was 107% and the activity at 30 µM ([3]; Bacillus subtilis, 168, minimal medium, 30 µM, relative to control, read-out: Final Backscatter) was 103%. For the same compound, the activity at 30 µM ([3]; Bacillus subtilis, 168, minimal medium, 30 µM, relative to control, read-out: Growth rate) was 103%, the “Lag Phase” value [3, 4] was 100,0% and the “Lag Phase” value [3, 5] was 100,0%. For the same compound, the “Lag Phase” value [3, 6] was 100,0%, the “Lag Phase” value [3, 7] was 100,0% and the “Lag Phase” value [3, 8] was 101,1%. The “Lag Phase” value [3, 9] was 100,0%.
